Assay: method code SF, from DOI: 10.2478/s11696-010-0084-9

SMILES | logP
O=C(NCc1cccnc1)c1cc(Cl)ccc1O | 1.74
Cc1ccc(C(=O)NCc2cccnc2)c(O)c1 | 1.67
O=C(NCc1ccccc1)c1cc(Br)ccc1O | 3.53
O=C(NCc1ccccn1)c1ccc(Cl)cc1O | 2.16
COc1cccc(C(=O)NCc2cccnc2)c1O | 1.06
COc1cccc(C(=O)NCc2ccccn2)c1O | 1.48
Cc1cccc(C(=O)NCc2cccnc2)c1O | 1.67
O=C(NCc1cccnc1)c1cc(Cl)cc(Cl)c1O | 2.3
O=C(NCc1cccnc1)c1ccc(Cl)cc1O | 1.74
O=C(NCc1ccccn1)c1cc(F)ccc1O | 1.76
O=C(NCc1cccnc1)c1ccccc1O | 1.18

Now from value to compound:

logP | SMILES
2.01 | O=C(NCc1cccnc1)c1cc(Br)ccc1O
3.08 | O=C(NCc1ccccc1)c1cc(Cl)ccc1O
1.06 | COc1ccc(C(=O)NCc2cccnc2)c(O)c1
2.52 | O=C(NCc1ccccc1)c1ccccc1O
4.18 | O=C(NCc1ccccc1)c1cc(Br)cc(Br)c1O
2.43 | O=C(NCc1ccccn1)c1cc(Br)ccc1O
1.34 | O=C(NCc1cccnc1)c1cc(F)ccc1O
2.09 | Cc1cccc(C(=O)NCc2ccccn2)c1O
2.09 | Cc1ccc(C(=O)NCc2ccccn2)c(O)c1
2.84 | O=C(NCc1cccnc1)c1cc(Br)cc(Br)c1O
3.26 | O=C(NCc1ccccn1)c1cc(Br)cc(Br)c1O
3.08 | O=C(NCc1ccccc1)c1ccc(Cl)cc1O
2.39 | COc1cccc(C(=O)NCc2ccccc2)c1O
3.64 | O=C(NCc1ccccc1)c1cc(Cl)cc(Cl)c1O
2.16 | O=C(NCc1ccccn1)c1cc(Cl)ccc1O

— the SangsterLogP compilation
